Laboratory results taken from patent US6514692B2, “Method for treatment of immunodeficiency virus infection” (priority 1996, dated 2003).
Several values for one entry are separate records, joined by “and”; a condition that tells them apart may be missing. Equal entries are not always repeated. Where two headings read alike, the source gives them in different places.

How the values were obtained:
[1] = system: ME180 cells; experiment: toxicity (XTT) in transmission inhibition assay; settings: for TOXICITY VALUES (XTT), single samples: samples 1-3; for TC50 (concentration at which 50% of cells are eliminated): interpolation from % CC
Excerpt: (§1) ME180 cells, a cervical epithelial cell line, were obtained from the American Type Culture Collection. These cells were thawed from liquid nitrogen and grown in RPMI 1640 medium supplemented with 10t fetal bovine serum, glutamine and antibiotics. The cells were adherent and were trypsinized (0.5% trypsin in HBSS) to remove them from the flask for passaging and use in assays. For use in the microtiter transmission inhibition assay, ME180 cells were trypsinized, washed and seeded in 96-well flat bottom microtiter plates (COSTAR) at a density of 5×10^3 cells per well. The cells were incubated at 37° C. for 24 hours prior to the tart of the assay. H9 cells chronically infected with he SK1 isolate of HIV-1 were treated with 200 μg/ml mitomycin C for 60 minutes at 37° C. After treatment the cells were washed three times with tissue culture medium. The chronically infected lymphocytes were added to each well at a density of 2×10^4 cells per well. The concentration of mitomycin C used in the treatment of the lymphocytes was chosen to allow lymphocyte survival for the period of time required to transmit virus to the uninfected ME180 cells, but to die prior to the time of assay so as not to contribute to the p24 signal used as the endpoint (see below). In the transmission assay the lytic peptides D4E1 and D2A21, with and without 150 μg/ml pig mucin, were added prior to the addition of chronically infected cells or were mixed with the chronically infected cells prior to their addition to the monolayer of ME180 cells. Mucin was included because it is an abundant constituent of the normal vaginal secretions of a human being, thus any chemotherapeutic agent targeting HIV should be active in its presence if it is to have clinical value. […] The lymphocytes and peptide were co-cultured with the ME180 cells for 6 hours and then removed by washing the ME180 monolayer four times with PBS. The plate was then incubated at 37° C. for six days. Medium was removed and changed every 48 hours during the incubation stage. No further peptide was added after the initial dose. At six days post-co-cultivation, the supernatant was removed from the wells and evaluated for the quantity of p24 antigen by ELISA. The ELISA was performed according to the manufacturer's recommendations. The amount of virus production in wells treated with various concentrations of the peptides was evaluated with appropriate cell and virus controls. Data are reported as a percent of virus control at each drug concentration. Linear regression analysis was used to calculate the […] and IC95 concentrations of the transmission inhibitor. […] TI represents the toxicity index, which is the ratio of the TC50/IC50, and is an indication of the relative concentrations window that exists between efficacy and toxicity.

[2] = system: SK1 isolate of HIV-1; settings: for p24 VALUES, single samples: samples 1-3; for IC50 (inhibition of cell-cell transmission): linear regression
Excerpt: as §1

[3] = 0.32 μg/ml, with 150 μg/ml pig mucin
[4] = 1 μg/ml, with 150 μg/ml pig mucin
[5] = 3.2 μg/ml, with 150 μg/ml pig mucin
[6] = 10 μg/ml, with 150 μg/ml pig mucin
[7] = 32 μg/ml, with 150 μg/ml pig mucin
[8] = 100 μg/ml, with 150 μg/ml pig mucin

Dextran
% CC (XTT, percent of cell control) ([1]; 0.32 μg/ml, no mucin): 90.1%
TOXICITY VALUES (XTT), MEAN ([1]; 0.32 μg/ml, no mucin): 0.458 O.D. @ 450/650 nm
TOXICITY VALUES (XTT), single samples ([1]; 0.32 μg/ml, no mucin): 0.462 O.D. @ 450/650 nm and 0.463 O.D. @ 450/650 nm and 0.488 O.D. @ 450/650 nm
% CC (XTT, percent of cell control) [1, 3]: 90.1%
TOXICITY VALUES (XTT), MEAN [1, 3]: 0.458 O.D. @ 450/650 nm
TOXICITY VALUES (XTT), single samples [1, 3]: 0.462 O.D. @ 450/650 nm and 0.463 O.D. @ 450/650 nm and 0.448 O.D. @ 450/650 nm
% CC (XTT, percent of cell control) ([1]; 1 μg/ml, no mucin): 88.1%
TOXICITY VALUES (XTT), MEAN ([1]; 1 μg/ml, no mucin): 0.447 O.D. @ 450/650 nm
TOXICITY VALUES (XTT), single samples ([1]; 1 μg/ml, no mucin): 0.425 O.D. @ 450/650 nm and 0.457 O.D. @ 450/650 nm and 0.450 O.D. @ 450/650 nm
% CC (XTT, percent of cell control) [1, 4]: 88.1%
TOXICITY VALUES (XTT), MEAN [1, 4]: 0.447 O.D. @ 450/650 nm
TOXICITY VALUES (XTT), single samples [1, 4]: 0.425 O.D. @ 450/650 nm and 0.467 O.D. @ 450/650 nm and 0.450 O.D. @ 450/650 nm
% CC (XTT, percent of cell control) ([1]; 3.2 μg/ml, no mucin): 91.1%
TOXICITY VALUES (XTT), MEAN ([1]; 3.2 μg/ml, no mucin): 0.463 O.D. @ 450/650 nm
TOXICITY VALUES (XTT), single samples ([1]; 3.2 μg/ml, no mucin): 0.477 O.D. @ 450/650 nm and 0.453 O.D. @ 450/650 nm and 0.459 O.D. @ 450/650 nm
% CC (XTT, percent of cell control) [1, 5]: 91.1%
TOXICITY VALUES (XTT), MEAN [1, 5]: 0.463 O.D. @ 450/650 nm
TOXICITY VALUES (XTT), single samples [1, 5]: 0.477 O.D. @ 450/650 nm and 0.453 O.D. @ 450/650 nm and 0.459 O.D. @ 450/650 nm
% CC (XTT, percent of cell control) ([1]; 10 μg/ml, no mucin): 92.0%
TOXICITY VALUES (XTT), MEAN ([1]; 10 μg/ml, no mucin): 0.467 O.D. @ 450/650 nm
TOXICITY VALUES (XTT), single samples ([1]; 10 μg/ml, no mucin): 0.468 O.D. @ 450/650 nm and 0.467 O.D. @ 450/650 nm
% CC (XTT, percent of cell control) [1, 6]: 92.0%
TOXICITY VALUES (XTT), MEAN [1, 6]: 0.467 O.D. @ 450/650 nm
TOXICITY VALUES (XTT), single samples [1, 6]: 0.468 O.D. @ 450/650 nm and 0.467 O.D. @ 450/650 nm
% CC (XTT, percent of cell control) ([1]; 32 μg/ml, no mucin): 91.7%
TOXICITY VALUES (XTT), MEAN ([1]; 32 μg/ml, no mucin): 0.466 O.D. @ 450/650 nm
TOXICITY VALUES (XTT), single samples ([1]; 32 μg/ml, no mucin): 0.457 O.D. @ 450/650 nm and 0.438 O.D. @ 450/650 nm and 0.493 O.D. @ 450/650 nm
% CC (XTT, percent of cell control) [1, 7]: 91.7%
TOXICITY VALUES (XTT), MEAN [1, 7]: 0.466 O.D. @ 450/650 nm
TOXICITY VALUES (XTT), single samples [1, 7]: 0.467 O.D. @ 450/650 nm and 0.438 O.D. @ 450/650 nm and 0.493 O.D. @ 450/650 nm
% CC (XTT, percent of cell control) ([1]; 100 μg/ml, no mucin): 97.8%
TOXICITY VALUES (XTT), MEAN ([1]; 100 μg/ml, no mucin): 0.497 O.D. @ 450/650 nm
TOXICITY VALUES (XTT), single samples ([1]; 100 μg/ml, no mucin): 0.481 O.D. @ 450/650 nm and 0.491 O.D. @ 450/650 nm and 0.519 O.D. @ 450/650 nm
% CC (XTT, percent of cell control) [1, 8]: 97.8%
TOXICITY VALUES (XTT), MEAN [1, 8]: 0.497 O.D. @ 450/650 nm
TOXICITY VALUES (XTT), single samples [1, 8]: 0.481 O.D. @ 450/650 nm and 0.491 O.D. @ 450/650 nm and 0.519 O.D. @ 450/650 nm
TC50 (concentration at which 50% of cells are eliminated) ([1]; no mucin): TC50 = 100 μg/ml
TC50 (concentration at which 50% of cells are eliminated) ([1]; with 150 μg/ml pig mucin): TC50 = 100 μg/ml
% VC (p24, percent of virus control) ([2]; 0.32 μg/ml, no mucin): 93.4%
p24 VALUES, MEAN ([2]; 0.32 μg/ml, no mucin): 51.0 µg/mL
p24 VALUES, single samples ([2]; 0.32 μg/ml, no mucin): 52.2 µg/mL and 52.5 µg/mL and 48.2 µg/mL
% VC (p24, percent of virus control) [2, 3]: 90.6%
p24 VALUES, MEAN [2, 3]: 56.2 µg/mL
p24 VALUES, single samples [2, 3]: 56.2 µg/mL and 53.5 µg/mL and 58.9 µg/mL
% VC (p24, percent of virus control) ([2]; 1 μg/ml, no mucin): 100.2%
p24 VALUES, MEAN ([2]; 1 μg/ml, no mucin): 54.7 µg/mL
p24 VALUES, single samples ([2]; 1 μg/ml, no mucin): 53.5 µg/mL and 57.0 µg/mL
% VC (p24, percent of virus control) [2, 4]: 86.72%
p24 VALUES, MEAN [2, 4]: 53.1 µg/mL
p24 VALUES, single samples [2, 4]: 51.0 µg/mL and 57.5 µg/mL and 50.9 µg/mL
% VC (p24, percent of virus control) ([2]; 3.2 μg/ml, no mucin): 91.4%
p24 VALUES, MEAN ([2]; 3.2 μg/ml, no mucin): 49.9 µg/mL
p24 VALUES, single samples ([2]; 3.2 μg/ml, no mucin): 50.3 µg/mL and 47.2 µg/mL and 52.2 µg/mL
% VC (p24, percent of virus control) [2, 5]: 88.2%
p24 VALUES, MEAN [2, 5]: 54.7 µg/mL
p24 VALUES, single samples [2, 5]: 52.1 µg/mL and 54.7 µg/mL and 57.3 µg/mL
% VC (p24, percent of virus control) ([2]; 10 μg/ml, no mucin): 84.1%
p24 VALUES, MEAN ([2]; 10 μg/ml, no mucin): 45.9 µg/mL
p24 VALUES, single samples ([2]; 10 μg/ml, no mucin): 45.3 µg/mL and 45.7 µg/mL and 46.6 µg/mL
% VC (p24, percent of virus control) [2, 6]: 92.6%
p24 VALUES, MEAN [2, 6]: 57.5 µg/mL
p24 VALUES, single samples [2, 6]: 53.2 µg/mL and 58.1 µg/mL and 61.1 µg/mL
% VC (p24, percent of virus control) ([2]; 32 μg/ml, no mucin): 96.0%
p24 VALUES, MEAN ([2]; 32 μg/ml, no mucin): 52.4 µg/mL
p24 VALUES, single samples ([2]; 32 μg/ml, no mucin): 51.9 µg/mL and 53.2 µg/mL and 52.0 µg/mL
% VC (p24, percent of virus control) [2, 7]: 102.7%
p24 VALUES, MEAN [2, 7]: 63.7 µg/mL
p24 VALUES, single samples [2, 7]: 65.5 µg/mL and 60.5 µg/mL and 65.1 µg/mL
% VC (p24, percent of virus control) ([2]; 100 μg/ml, no mucin): 94.5%
p24 VALUES, MEAN ([2]; 100 μg/ml, no mucin): 51.6 µg/mL
p24 VALUES, single samples ([2]; 100 μg/ml, no mucin): 52.6 µg/mL and 52.0 µg/mL and 50.1 µg/mL
% VC (p24, percent of virus control) [2, 8]: 104.2%
p24 VALUES, MEAN [2, 8]: 64.6 µg/mL
p24 VALUES, single samples [2, 8]: 63.7 µg/mL and 59.6 µg/mL and 70.6 µg/mL
IC50 (inhibition of cell-cell transmission) ([2]; no mucin): IC50 = 100 μg/ml
IC50 (inhibition of cell-cell transmission) ([2]; with 150 μg/ml pig mucin): IC50 = 100 μg/ml
